From ChEMBL document CHEMBL1137519, “Elucidation of the RNA target of linezolid by using a linezolid-neomycin B heteroconjugate and genomic SELEX” (Bioorg Med Chem, 2007)

Columns and labels:
[1] = Binding affinity to Escherichia coli K12 stem-loop region L2-12 RNA aptamers using luminescence spectrometer by anisotropy technique
[2] = Binding affinity to Escherichia coli K12 stem-loop region L2-10 RNA aptamers using luminescence spectrometer by anisotropy technique
[3] = Binding affinity to Escherichia coli K12 stem-loop region L2-11 RNA aptamers using luminescence spectrometer by anisotropy technique
[4] = Binding affinity to Escherichia coli K12 stem-loop region L2-11 RNA aptamers using BIAcore 3000 instrument
[5] = Binding affinity to Escherichia coli K12 stem-loop region L2-12 RNA aptamers using BIAcore 3000 instrument

SMILES	Kd [1] [µM]	Kd [2] [µM]	Kd [3] [µM]	Kd [4] [µM]	Kd [5] [µM]
CC(=O)NC[C@@H]1CN(c2ccc(N3CCN(C(=O)CSCCCCCCSC[C@@H]4O[C@H](O[C@@H]5[C@@H](O)[C@H](N)C[C@H](N)[C@H]5O[C@H]5O[C@H](CN)[C@@H](O)[C@H](O)[C@H]5N)[C@@H](O)[C@H]4O[C@@H]4O[C@H](CN)[C@H](O)[C@@H](O)[C@@H]4N)CC3)c(F)c2)C(=O)O1	0.066	0.09	0.26	0.96	0.67
NC[C@@H]1O[C@H](O[C@H]2[C@@H](O)[C@H](O[C@@H]3[C@@H](O)[C@H](N)C[C@H](N)[C@H]3O[C@H]3O[C@H](CN)[C@@H](O)[C@H](O)[C@H]3N)O[C@@H]2CO)[C@H](N)[C@@H](O)[C@@H]1O (stereo in doubt) [FRAMYCETIN]	0.32	0.308	0.313	6.3	2.3
